Test results: PubChem BioAssay (NCI)
Several values for one entry are separate records, joined by “and”; a condition that tells them apart may be missing. Equal entries are not always repeated.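 Five concentrations, 48 hours, 96-well plates. GI50 = concentration required for 50% inhibition of growth. Definition used: TGI = concentration required for complete inhibition of growth.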

Legend:
Test in all cases: growth of human tumour cells (NCI), 48 h
NCI-H460 lung = test system: NCI-H460 lung
HL-60(TB) leukemia = test system: HL-60(TB) leukemia
OVCAR-4 ovarian = test system: OVCAR-4 ovarian
SN12C renal = test system: SN12C renal
SF-268 CNS = test system: SF-268 CNS
HT29 colon = test system: HT29 colon
K-562 leukemia = test system: K-562 leukemia
M14 melanoma = test system: M14 melanoma

CC(=O)c1c(C)c2cnc(Nc3ccc(N4CCNCC4)cn3)nc2n(C2CCCC2)c1=O
GI50 (NCI-H460 lung): 1.79 µM
TGI (NCI-H460 lung): 18.4 µM
GI50 (HL-60(TB) leukemia): 0.638 µM
TGI (HL-60(TB) leukemia): 24.8 µM
GI50 (OVCAR-4 ovarian): 11.2 µM
TGI (OVCAR-4 ovarian): 23.8 µM
GI50 (SN12C renal): 7.37 µM
TGI (SN12C renal): 21.6 µM
GI50 (SF-268 CNS): 10.7 µM
TGI (SF-268 CNS): 25.3 µM
GI50 (HT29 colon): 0.969 µM
TGI (HT29 colon): 16.8 µM
GI50 (K-562 leukemia): 3.34 µM
TGI (K-562 leukemia): 19.7 µM
GI50 (M14 melanoma): 9.13 µM
TGI (M14 melanoma): 23.6 µM

Cc1cc(N2CCOCC2)nc(NCc2cc(Nc3ccnc4cc(Cl)ccc34)ccc2F)n1
GI50 (NCI-H460 lung): 1.83 µM
TGI (NCI-H460 lung): 3.57 µM
GI50 (HL-60(TB) leukemia): 2.31 µM
TGI (HL-60(TB) leukemia): 4.82 µM
GI50 (OVCAR-4 ovarian): 1.32 µM
TGI (OVCAR-4 ovarian): 3.69 µM
GI50 (SN12C renal): 1.83 µM
TGI (SN12C renal): 3.66 µM
GI50 (SF-268 CNS): 1.42 µM
TGI (SF-268 CNS): 3.02 µM
GI50 (HT29 colon): 0.834 µM
TGI (HT29 colon): 2.24 µM
GI50 (K-562 leukemia): 1.78 µM
TGI (K-562 leukemia): 4.49 µM
GI50 (M14 melanoma): 1.86 µM
TGI (M14 melanoma): 3.57 µM

FC(F)(F)c1cccc(-c2[nH]ncc2-c2nnnn2-c2ccccc2)c1
GI50 (NCI-H460 lung): 3.32 µM
TGI (NCI-H460 lung): 12.8 µM
GI50 (HL-60(TB) leukemia): 3.94 µM
TGI (HL-60(TB) leukemia): 8.86 µM
GI50 (OVCAR-4 ovarian): 11.7 µM
TGI (OVCAR-4 ovarian): 28.8 µM
GI50 (SN12C renal): 9.76 µM
TGI (SN12C renal): 21.9 µM
GI50 (SF-268 CNS): 7.69 µM
TGI (SF-268 CNS): 23.3 µM
GI50 (HT29 colon): 2.99 µM
TGI (HT29 colon): 9.33 µM
GI50 (K-562 leukemia): 3.3 µM
TGI (K-562 leukemia): 15.8 µM
GI50 (M14 melanoma): 3.21 µM
TGI (M14 melanoma): 11.6 µM

C=C(C)C(=O)Nc1ccc(-c2c(-c3ccc(Oc4nccc(C)n4)c(F)c3)c3c(N)ncnc3n2C)cc1
GI50 (NCI-H460 lung): 3.05 µM
TGI (NCI-H460 lung): 13.3 µM
GI50 (HL-60(TB) leukemia): 4.74 µM
TGI (HL-60(TB) leukemia): > 100 µM
GI50 (OVCAR-4 ovarian): 2.84 µM
TGI (OVCAR-4 ovarian): 33.8 µM
GI50 (SN12C renal): 2.63 µM
TGI (SN12C renal): 17.2 µM
GI50 (SF-268 CNS): 1.67 µM
TGI (SF-268 CNS): 16 µM
GI50 (HT29 colon): 3.22 µM
TGI (HT29 colon): 14.2 µM
GI50 (K-562 leukemia): 3.43 µM
TGI (K-562 leukemia): > 100 µM
GI50 (M14 melanoma): 5.64 µM
TGI (M14 melanoma): 20 µM

COC(=O)c1cc(-c2ccc(S(C)(=O)=O)cc2)[nH]c1N/N=C/c1c(Cl)cccc1Cl
GI50 (NCI-H460 lung): 0.367 µM
TGI (NCI-H460 lung): 10.3 µM
GI50 (HL-60(TB) leukemia): 0.57 µM
TGI (HL-60(TB) leukemia): > 100 µM
GI50 (OVCAR-4 ovarian): 1.7 µM
TGI (OVCAR-4 ovarian): > 100 µM
GI50 (SN12C renal): 0.699 µM
TGI (SN12C renal): > 100 µM
GI50 (SF-268 CNS): 0.587 µM
TGI (SF-268 CNS): > 56.4 µM
GI50 (HT29 colon): 0.373 µM
TGI (HT29 colon): 4.45 µM
GI50 (K-562 leukemia): 1.87 µM
TGI (K-562 leukemia): > 100 µM
GI50 (M14 melanoma): 0.624 µM
TGI (M14 melanoma): 9.77 µM

CCN1C(=O)N(CC)C2C1N=C(SC)N2/N=C/C=C/c1ccccc1OC (stereo not drawn)
GI50 (NCI-H460 lung): 0.341 µM
TGI (NCI-H460 lung): > 34.3 µM
GI50 (HL-60(TB) leukemia): 0.289 µM
TGI (HL-60(TB) leukemia): 1.09 µM
GI50 (OVCAR-4 ovarian): 1.55 µM
TGI (OVCAR-4 ovarian): > 81.5 µM
GI50 (SN12C renal): 0.512 µM
TGI (SN12C renal): > 43.5 µM
GI50 (SF-268 CNS): 0.877 µM
TGI (SF-268 CNS): > 57.7 µM
GI50 (HT29 colon): 0.357 µM
GI50 (K-562 leukemia): 0.361 µM
TGI (K-562 leukemia): > 42.8 µM
GI50 (M14 melanoma): 0.33 µM
TGI (M14 melanoma): > 37.4 µM

Cc1c(C(N)=O)sc2nc(C)n(/N=c3\scc(-c4ccccc4)n3Cc3ccccc3)c(=O)c12
GI50 (NCI-H460 lung): 2.65 µM
TGI (NCI-H460 lung): 7.34 µM
GI50 (HL-60(TB) leukemia): 6.68 µM
TGI (HL-60(TB) leukemia): > 100 µM
GI50 (OVCAR-4 ovarian): 2.5 µM
TGI (OVCAR-4 ovarian): > 100 µM
GI50 (SN12C renal): 3.84 µM
TGI (SN12C renal): > 100 µM
GI50 (SF-268 CNS): 4 µM
TGI (SF-268 CNS): > 100 µM
GI50 (HT29 colon): 3.04 µM
TGI (HT29 colon): > 100 µM
GI50 (K-562 leukemia): 8.89 µM
TGI (K-562 leukemia): > 100 µM
GI50 (M14 melanoma): 3.88 µM
TGI (M14 melanoma): 84.5 µM

CCC(=O)Nc1nnc(Cc2ccc(OC)c(OC)c2)s1
GI50 (NCI-H460 lung): > 100 µM
TGI (NCI-H460 lung): > 100 µM
GI50 (HL-60(TB) leukemia): > 100 µM
TGI (HL-60(TB) leukemia): > 100 µM
GI50 (OVCAR-4 ovarian): > 100 µM
TGI (OVCAR-4 ovarian): > 100 µM
GI50 (SN12C renal): > 100 µM
TGI (SN12C renal): > 100 µM
GI50 (SF-268 CNS): > 100 µM
TGI (SF-268 CNS): > 100 µM
GI50 (HT29 colon): > 100 µM
TGI (HT29 colon): > 100 µM
GI50 (K-562 leukemia): > 100 µM
TGI (K-562 leukemia): > 100 µM
GI50 (M14 melanoma): > 100 µM
TGI (M14 melanoma): > 100 µM

CNc1cc(-c2cccc(OC(F)(F)F)c2)nc2ccc(N3CCCC3)cc12
GI50 (NCI-H460 lung): 1.6 µM and 1.75 µM
TGI (NCI-H460 lung): 3.07 µM and 3.44 µM
GI50 (HL-60(TB) leukemia): 2.12 µM and 1.96 µM and 1.95 µM
TGI (HL-60(TB) leukemia): 4.65 µM and 4.94 µM and 4.28 µM
GI50 (OVCAR-4 ovarian): 1.63 µM and 1.69 µM and 1.75 µM
TGI (OVCAR-4 ovarian): 3.33 µM and 3.19 µM and 3.36 µM
GI50 (SN12C renal): 1.76 µM and 1.68 µM and 1.71 µM
TGI (SN12C renal): 3.36 µM and 3.14 µM and 3.26 µM
GI50 (SF-268 CNS): 1.94 µM and 1.88 µM and 1.87 µM
TGI (SF-268 CNS): 3.51 µM and 3.77 µM
GI50 (HT29 colon): 1.31 µM and 1.61 µM and 1.54 µM
TGI (HT29 colon): 2.69 µM and 3.06 µM and 3.01 µM
GI50 (K-562 leukemia): 0.884 µM
TGI (K-562 leukemia): 3.61 µM
GI50 (M14 melanoma): 1.64 µM and 1.72 µM and 1.69 µM
TGI (M14 melanoma): 3.04 µM and 3.24 µM and 3.14 µM

C=CCSC(C)=O
TGI (NCI-H460 lung): > 100 µM
TGI (HL-60(TB) leukemia): > 100 µM
TGI (OVCAR-4 ovarian): > 100 µM
TGI (SN12C renal): > 100 µM
TGI (SF-268 CNS): > 100 µM
TGI (HT29 colon): > 100 µM
TGI (K-562 leukemia): > 100 µM
TGI (M14 melanoma): > 100 µM

COc1cc(C2NC(=O)C(C#N)=C(Nc3cccc(C)c3)S2)ccc1O (stereo not drawn)
GI50 (NCI-H460 lung): > 100 µM
TGI (NCI-H460 lung): > 100 µM
GI50 (HL-60(TB) leukemia): > 100 µM
TGI (HL-60(TB) leukemia): > 100 µM
GI50 (OVCAR-4 ovarian): > 100 µM
TGI (OVCAR-4 ovarian): > 100 µM
GI50 (SN12C renal): > 100 µM
TGI (SN12C renal): > 100 µM
GI50 (SF-268 CNS): > 100 µM
TGI (SF-268 CNS): > 100 µM
GI50 (HT29 colon): > 100 µM
TGI (HT29 colon): > 100 µM
GI50 (K-562 leukemia): > 100 µM
TGI (K-562 leukemia): > 100 µM
GI50 (M14 melanoma): > 100 µM
TGI (M14 melanoma): > 100 µM

COc1cc(C(=O)n2nc(N)c3c(C)cc(C)nc32)cc(OC)c1OC
GI50 (NCI-H460 lung): > 100 µM
TGI (NCI-H460 lung): > 100 µM
GI50 (HL-60(TB) leukemia): 4.49 µM
TGI (HL-60(TB) leukemia): > 100 µM
GI50 (OVCAR-4 ovarian): > 100 µM
TGI (OVCAR-4 ovarian): > 100 µM
GI50 (SN12C renal): > 100 µM
TGI (SN12C renal): > 100 µM
GI50 (SF-268 CNS): > 100 µM
TGI (SF-268 CNS): > 100 µM
GI50 (HT29 colon): 3.46 µM
TGI (HT29 colon): > 100 µM
GI50 (K-562 leukemia): 0.488 µM
TGI (K-562 leukemia): > 100 µM
GI50 (M14 melanoma): > 73.7 µM
TGI (M14 melanoma): > 100 µM
